Reference: ChEMBL document CHEMBL4402539, “Biological effects and activity optimization of small-molecule, drug-like synthetic anion transporters” (Eur J Med Chem, 2019)

What was measured:
Format in all cases: functional, cell-based
[1] = system: A549; test: Cytotoxicity in human A549 cells assessed as reduction in cell viability after 18 hrs by MTT assay; details: A549, 18 h
[2] = system: CAPAN-1; test: Cytotoxicity in human Capan1 cells assessed as reduction in cell viability after 18 hrs by MTT assay; details: CAPAN-1, 18 h
[3] = system: HCT-116; test: Cytotoxicity in human HCT116 cells assessed as reduction in cell viability after 18 hrs by MTT assay; details: HCT-116, 18 h
[4] = system: HeLa; test: Cytotoxicity in human HeLa cells assessed as reduction in cell viability after 18 hrs by MTT assay

Measured: IC50

CC1(C)c2ccc([nH]2)C2(C)CCCCNC(=O)c3cccc(n3)C(=O)NCCCCC(C)(c3ccc1[nH]3)c1ccc([nH]1)C(C)(C)c1ccc2[nH]1
10 to 15 µM: all assays above

CC1(C)c2ccc([nH]2)C2(C)CCCNC(=O)c3cccc(n3)C(=O)NCCCC(C)(c3ccc1[nH]3)c1ccc([nH]1)C(C)(C)c1ccc2[nH]1
10 to 15 µM: all assays above
